Earlier results, collected in patent US20090274776A1, “Method for the Diagnosis and Treatment of Conditions Involving Aberrant Erythrocyte Potassium Levels” (THE REGENTS OF THE UNIVERSITY OF MICHIGAN, priority 2006, published 2009).

How the values were obtained:
RBC = RBC treated with the substance; by activation of IKCa
KCa in RBC = target: T1, KCa in RBC (Homo sapiens, UniProt O15554); settings: red blood cells
T1 construct: host or cells: red blood cells (endogenous channel)

[1] = tested on: endothelium-derived hyperpolarizing factor (EDHF); settings: in the presence of apamin

Compound	K+ efflux in RBC (RBC)	effect on KCa in RBC (KCa in RBC)	EDHF relaxation [1]
Nc1nc2c(nc(Br)n2[C@@H]2O[C@@H]3COP(=O)(O)O[C@H]3[C@H]2O)c(=O)[nH]1 [8Br-cGMP]	increased		
CC1(C)Oc2ccc(C#N)cc2C(N2CCCC2=O)C1O (stereo not shown) [cromakalim]		opens	
OC1(c2cccc(Cl)c2)C2=NCCCN2c2ccccc21 (stereo not shown) [Ciclazindol]		inhibits	abolishes
